# Entries after “also recorded” stand apart in the source; their conditions may differ.
# How the values were obtained:
# [1] = system: humoral response to HBsAg (anti-HBsAg antibodies); test: Humoral response (anti-HBsAg antibody titers by ELISA) in mice immunized i.m. with HBsAg plus adjuvant; format: in vivo, BALB/c mice; conditions: for mean anti-HBsAg titer: 3 weeks post-immunization, approx. 18 nmol compound per mouse with alum and 1 μg HBsAg (FIG. 4); for speed of immune response vs alum control: titers at 2 to 3 weeks, p<0.05, approx. 18 nmol per mouse with alum
# Description: Immunization with HBsAg was conducted on groups of (n=4 or 5) 6- to 8-week old female BALB/c mice (Harlan) as described in, Davis et al., 1996. Each solution contained 1 μg recombinant HBsAg protein (ayw subtype; Genzyme) in a total volume of 50 μl, and 25 μl of each antigen solution was injected into both the left and right tibialis anterior muscles. […] This is the same ratio as used in the commercial hepatitis B vaccines (Davis et al., 1996). […] (Oligonucleotide 1826, previously described in Davis et al., 1996, contains a nuclease-resistant phosphorothioate modified backbone).
# The ELISA method was used to evaluate the immune response to a combination of ppGpp and pppGpp and the immune response to ppGpp alone. Kinetics and magnitude of the immune response generated by the nucleotide ppGpp versus an oligonucleotide containing CpG were also determined from the data generated by ELISA. For the isotyping ELISAs the Immunopure Monoclonal Antibody Isotyping Kit I (HRP/ABTS) from Pierce was modified and used.
# For measuring humoral response to HBsAg blood was recovered from mice by tail vein bleeds at various times after immunization. The blood was clotted at room temperature for >2 hours, and centrifuged twice at 13 krpm for 10 minutes to separate the serum. Antibodies specific to HBsAg were detected by ELISA, and were quantified relative to a monoclonal antibody against HBsAg (IgG1, 10^10 affinity constant, ad+ay; Genzyme). A solid phase of recombinant HBsAg protein (100 μl of 1 μg/ml per well, overnight at 4° C.) was used to capture anti-HBsAg in the plasma (overnight at 4° C.), which was then detected with HRP-conjugated rabbit anti-mouse IgG+IgM. (1:10,000 in PBS/0.1% Tween/2% BSA; 100 μl per well; Pierce), followed by the sequential addition of 3 3′,5,5′-tetramethylbenzidine solution (50 μl/well, 10 minutes at room temperature; Calbiochem) and 0.25M HCl (50 μl/well). Absorbance was measured at 450 nm within 10 minutes of adding the final reagent. Anti-HB titers are expressed as group means +/−standard error (SE) of individual animals values, which are in turn averages of triplicate assays.
# [2] = Tolerability / signs of toxicity in immunized mice; format: in vivo; conditions: up to 250 μg ppGpp per mouse i.m.
Structure (SMILES),adjuvant effect on humoral response ([1]; 10 μg (18 nmol) GTP with alum and HBsAg (FIG. 4E)),effect upon the humoral response ([1]; 2 μg ppGpp plus alum (FIG. 3C)),effect upon the humoral response ([1]; 50 μg ppGpp plus alum (FIG. 3E)),effect upon the humoral response ([1]; 250 μg ppGpp plus alum (FIG. 3F vs 3B)),mean anti-HBsAg titer [1],"anti-HBsAg titer, ppGpp group vs alum group ([1]; 4 weeks post-immunization, ppGpp 10 μg plus alum (FIG. 3B vs 3D))","anti-HBsAg titer, ppGpp group vs alum group ([1]; 6 weeks post-immunization, ppGpp 10 μg plus alum)","maximal anti-HBsAg titer level ([1]; 10 weeks post-immunization, HBsAg plus alum, ppGpp 10 μg)","time course of humoral response, ppGpp vs unmethylated CpG oligonucleotide (oligo 1826) ([1]; ppGpp 10 μg vs oligo 10 μg, with alum (FIG. 5))","effect of natural ppGpp vs predicted response of natural CpG oligonucleotide ([1]; predicted response, dotted line of FIG. 5)",speed of immune response vs alum control [1],"optimal dosage per mouse ([1]; titration 2, 10, 50, 250 μg ppGpp with alum and 1 μg HBsAg (FIGS. 3C-3F))","mean ELISA titer of anti-HBsAg antibodies ([1]; two weeks after injection, HBsAg plus alum, ppGpp 10 μg, p=0.04 (FIG. 3B, 3D))","tolerability / signs of toxicity (ruffling of fur, diarrhea) [2]"
"Nc1nc2c(ncn2[C@@H]2O[C@H](COP(=O)(O)OP(=O)(O)OP(=O)(O)O)[C@@H](O)[C@H]2O)c(=O)[nH]1 [GTP, reference compound]",modest at best,–,–,–,–,–,–,–,–,–,–,–,–,–
"Nc1nc2c(ncn2[C@@H]2O[C@H](COP(=O)(O)OP(=O)(O)O)[C@@H](OP(=O)(O)OP(=O)(O)O)[C@H]2O)c(=O)[nH]1 [ppGpp, Guanosine 5′-diphosphate 2′(3′)-diphosphate]",–,did not have a significant effect,did not have a significant effect,appeared to suppress the alum-induced adjuvant effect,161 ± 42 ng/mL,trend was still present,comparable titer levels,2316 ± 1764 ng/mL,did not appear to differ,much greater effect,more rapid immune response,10 µg,83 ± 37 ng/mL,well tolerated; also recorded: no signs of toxicity were observed
"Nc1nc2c(ncn2[C@@H]2O[C@H](COP(=O)(O)OP(=O)(O)OP(=O)(O)O)[C@@H](OP(=O)(O)OP(=O)(O)O)[C@H]2O)c(=O)[nH]1 [pppGpp, Guanosine 5′-triphosphate 2′(3′)-diphosphate]",–,–,–,–,136 ± 33 ng/mL,–,–,–,–,–,more rapid immune response,–,–,–

# — patent publication US6562801B1, “PpGpp and pppGpp as immunomodulatory agents” (Board of Regents, The University of Texas System, priority 1999, dated 2003)
